From patent US20250302817A1, “METHODS FOR TREATING PTEN-MUTANT TUMORS” (Icahn School of Medicine at Mount Sinai, priority 2016, published 2025)
Where two headings read alike, the source gives them in different places.

Assays:
Pten^−/− and WT MEFs = assay: Drug response assay (GI50 dose titration) in Pten WT and KO MEFs; format: cell-based, mouse; settings: GI50 dose titration (FIG. 2A)
Description: FIG. 2F is a graph comparing various human breast cancer cell line growth rates. FIG. 2G is a series of immunoblots of pAKT in nuclear fractions of Pten^−/− and Pik3ca mutant MEFs. […] Data shown as mean+SD.
1500 cells per well (mouse cells) or 3000 cells per well (human cells) were plated in 96-well plates (Corning 720089). Growth rates were determined using the phase-confluency readings on an IncuCyte ZOOM (Essen Biosciences) on live cells over time.
Cells were plated in 96-well plates at a density of 1500 or 3000 cells per well. […] Sensitivity was determined by a dose-response titration for each cell line, with an equivalent amount of DMSO in each well. For cell death assays, DRAQ7™ (Cell Signaling 7406S) was added to the media at a 1:200 dilution and red fluorescence was measured in addition to phase in live-cell imaging to measure accumulation of dead cells. An IncuCyte ZOOM was used.

gamma-H2AX = assay: Gamma-H2AX measurement of DNA damage by flow cytometry; format: cell-based; settings: 100 μM leflunomide 48 h or A771726
Description: FIG. 4A is a graph showing positively-stained cells labeled with a gamma-H2AX antibody; cells were analyzed by flow cytometry (Student's t-test, *p<0.05, n=3). […] The mean fluorescence intensity (MFI) was determined using flow cytometry (Student's t-test, *p<0.01, n=3). FIG. 4C is a series of representative photographs showing MEFs treated with 150 μM A771726 for 24 h and labeled with EdU and gamma-H2AX. Left: representative confocal microscopy images. Right: quantified EdU and gamma-H2AX colocalized foci (Student's t-test, *p<0.05, n=3). […] Left: representative confocal microscopy images. Right: quantification of the number of foci per cell (Student's t-test, p>0.05, n=6). FIG. 4E is a graph showing the percentage of cells treated with 150 μM A771726 for times indicated and labeled with antibodies to RPA and gamma-H2AX positively staining for RPA alone or both RPA and gamma-H2AX; cells were analyzed by flow cytometry (Student's t-test, *p<0.05, n=4). […] FIGS. 4G and 4H are graphs quantifying the number of chromosomal breaks and multiradial formations per haploid genome (Student's t-test, *p-values on figure, cells scored/replicate>100). […]
FIG. 10D is a bar graph showing a quantitative depiction of the percent cell area with EdU-staining from images in FIG. 4D, used to normalize foci to cell size (Student's t-test, p>0.05, not significant, n=6). […]

[1] = system: ATR phosphorylation of CHK1 at serine 345; assay: Immunoblot of pChk1; format: cell-based; settings: 150 μM A771726; Pten WT versus Pten^−/− cells
[2] = cited from earlier work; for median t½: healthy volunteers and MS patients
[3] = cited from earlier work
[4] = cited from earlier work; remark: listed apart in the source
[5] = healthy subjects; cited from earlier work
CYP2C8 = target: T1, CYP2C8 (Homo sapiens, UniProt P10632); settings: repeated doses of teriflunomide, single dose of 0.25 mg repaglinide; cited from earlier work
T1 construct: host or cells: human subjects, in vivo
T1 sequence (P10632 whole entry): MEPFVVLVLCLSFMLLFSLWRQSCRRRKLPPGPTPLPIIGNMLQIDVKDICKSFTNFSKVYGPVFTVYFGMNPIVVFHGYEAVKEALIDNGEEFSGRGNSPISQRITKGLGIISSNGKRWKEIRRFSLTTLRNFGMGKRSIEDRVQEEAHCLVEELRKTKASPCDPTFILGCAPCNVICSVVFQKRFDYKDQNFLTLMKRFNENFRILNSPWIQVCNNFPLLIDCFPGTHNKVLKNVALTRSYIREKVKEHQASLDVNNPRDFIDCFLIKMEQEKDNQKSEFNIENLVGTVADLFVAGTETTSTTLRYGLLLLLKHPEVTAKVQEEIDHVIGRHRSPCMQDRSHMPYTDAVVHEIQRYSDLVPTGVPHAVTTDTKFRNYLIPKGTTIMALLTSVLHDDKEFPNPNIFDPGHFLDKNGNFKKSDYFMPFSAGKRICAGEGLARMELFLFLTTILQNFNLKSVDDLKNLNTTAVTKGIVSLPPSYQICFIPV

CYP1A2 = settings: repeated doses of teriflunomide; cited from earlier work
[6] = target: T2, organic anion transporter 3 (OAT3) (Homo sapiens, UniProt Q8TCC7); settings: repeated doses of teriflunomide; cited from earlier work
T2 construct: host or cells: human subjects, in vivo
T2 sequence (Q8TCC7 whole entry): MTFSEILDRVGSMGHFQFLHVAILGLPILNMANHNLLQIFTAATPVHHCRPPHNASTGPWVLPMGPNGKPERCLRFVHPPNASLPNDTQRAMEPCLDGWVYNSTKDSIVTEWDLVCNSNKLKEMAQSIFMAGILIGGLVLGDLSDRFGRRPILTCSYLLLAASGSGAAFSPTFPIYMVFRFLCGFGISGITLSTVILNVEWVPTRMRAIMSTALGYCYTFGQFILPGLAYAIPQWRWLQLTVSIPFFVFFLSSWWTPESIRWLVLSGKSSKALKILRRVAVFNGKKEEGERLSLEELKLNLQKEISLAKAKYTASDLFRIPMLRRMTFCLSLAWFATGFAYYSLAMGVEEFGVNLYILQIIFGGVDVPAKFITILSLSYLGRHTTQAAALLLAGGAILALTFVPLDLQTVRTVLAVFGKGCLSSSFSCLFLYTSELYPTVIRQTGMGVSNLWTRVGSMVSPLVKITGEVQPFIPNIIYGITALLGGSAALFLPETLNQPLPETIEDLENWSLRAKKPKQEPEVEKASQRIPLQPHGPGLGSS

[7] = repeated doses of teriflunomide; cited from earlier work
CYP2B6 = target: T3, CYP2B6 (Homo sapiens, UniProt P20813); settings: in vivo; cited from earlier work
T3 construct: host or cells: human subjects, in vivo
T3 sequence (P20813 whole entry): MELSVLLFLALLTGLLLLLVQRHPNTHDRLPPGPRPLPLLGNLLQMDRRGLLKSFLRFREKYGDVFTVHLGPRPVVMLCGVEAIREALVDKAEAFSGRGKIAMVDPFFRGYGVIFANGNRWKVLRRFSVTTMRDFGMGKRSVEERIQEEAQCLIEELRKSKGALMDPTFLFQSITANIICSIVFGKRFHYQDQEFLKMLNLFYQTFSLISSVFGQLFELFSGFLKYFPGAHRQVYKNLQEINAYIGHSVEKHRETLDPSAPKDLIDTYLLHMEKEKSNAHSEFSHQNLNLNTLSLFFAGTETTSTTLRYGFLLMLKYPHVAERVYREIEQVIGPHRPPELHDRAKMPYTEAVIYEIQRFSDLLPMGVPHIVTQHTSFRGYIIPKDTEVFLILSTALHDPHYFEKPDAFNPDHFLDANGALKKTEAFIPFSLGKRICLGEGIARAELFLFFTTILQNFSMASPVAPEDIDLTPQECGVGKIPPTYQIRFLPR

CYP2C19 = target: T4, CYP2C19 (Homo sapiens, UniProt P33261); settings: in vivo; cited from earlier work
T4 construct: omeprazole (a CYP2C19 substrate); host or cells: human subjects, in vivo
T4 sequence (P33261 whole entry): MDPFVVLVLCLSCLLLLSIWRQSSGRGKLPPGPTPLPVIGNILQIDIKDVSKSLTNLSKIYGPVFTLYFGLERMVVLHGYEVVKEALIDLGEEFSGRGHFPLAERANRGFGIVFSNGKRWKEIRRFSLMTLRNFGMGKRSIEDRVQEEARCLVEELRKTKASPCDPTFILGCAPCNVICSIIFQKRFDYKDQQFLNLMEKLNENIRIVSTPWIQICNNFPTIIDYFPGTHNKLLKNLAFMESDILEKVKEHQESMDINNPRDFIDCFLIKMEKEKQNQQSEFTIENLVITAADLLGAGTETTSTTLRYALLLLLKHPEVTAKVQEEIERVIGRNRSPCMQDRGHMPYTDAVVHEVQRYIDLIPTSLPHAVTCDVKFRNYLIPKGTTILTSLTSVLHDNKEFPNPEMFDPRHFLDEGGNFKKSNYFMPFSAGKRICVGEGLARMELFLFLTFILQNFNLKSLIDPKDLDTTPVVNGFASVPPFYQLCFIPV

CYP2D6 = target: T5, CYP2D6 (Homo sapiens, UniProt P10635); settings: in vivo; cited from earlier work
T5 construct: metoprolol (a CYP2D6 substrate); host or cells: human subjects, in vivo
T5 sequence (P10635 whole entry): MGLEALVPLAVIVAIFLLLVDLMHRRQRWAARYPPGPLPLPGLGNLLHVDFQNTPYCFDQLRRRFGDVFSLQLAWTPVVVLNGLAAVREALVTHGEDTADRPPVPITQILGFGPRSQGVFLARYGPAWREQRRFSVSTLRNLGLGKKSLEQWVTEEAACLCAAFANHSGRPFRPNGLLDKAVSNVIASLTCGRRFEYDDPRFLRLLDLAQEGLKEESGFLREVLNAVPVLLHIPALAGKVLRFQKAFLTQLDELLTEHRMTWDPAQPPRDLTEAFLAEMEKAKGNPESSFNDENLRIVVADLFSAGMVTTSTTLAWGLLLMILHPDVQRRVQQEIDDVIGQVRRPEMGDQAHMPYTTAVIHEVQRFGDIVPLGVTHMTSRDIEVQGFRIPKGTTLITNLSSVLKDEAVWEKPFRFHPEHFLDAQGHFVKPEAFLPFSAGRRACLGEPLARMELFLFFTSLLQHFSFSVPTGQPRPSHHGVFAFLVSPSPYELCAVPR

[8] = without accelerated elimination procedure

**Q.** Which “sensitivity of Pten^−/− MEFs compared with WT MEFs” value (Pten^−/− and WT MEFs) does the source give for C/C(O)=C(\C#N)C(=O)Nc1ccc(C(F)(F)F)cc1 [teriflunomide, (Z)-2-Cyano-3-hydroxy-but-2-enoic acid-(4trifluoromethylphenyl)-amide] here?
**A.** The value was “more sensitive”.

**Q.** And the “DNA damage (gamma-H2AX) in PTEN-deficient versus WT cells” value (gamma-H2AX)?
**A.** The value was “augmented DNA damage to a significantly greater degree in PTEN-deficient cells”.

**Q.** What about the “ATR phosphorylation of CHK1 at serine 345” value [1] of the same compound?
**A.** Its value is “triggered ATR phosphorylation of CHK1 at serine 345 in Pten WT, but to a much lesser extent in Pten^−/− cells”.

**Q.** And the “effect of food on teriflunomide pharmacokinetics” value ([2]; human, in vivo)?
**A.** Its value is “does not have a clinically relevant effect”.

**Q.** What about the “time to reach steady-state concentrations” value ([2]; human, in vivo) of the same compound?
**A.** Its value is “approximately 3 months”.

**Q.** And the “volume of distribution (Vss)” value ([2]; human, in vivo)?
**A.** Its value is 0.13 L/kg.

**Q.** And the “administered dose excreted via feces” value ([2]; over 21 days)?
**A.** The value was 37.5%.

**Q.** What about the “administered dose excreted via feces and urine” value ([2]; over 21 days) of the same compound?
**A.** Its value is 60.1%.

**Q.** What about the “administered dose excreted via urine” value ([2]; over 21 days) of the same compound?
**A.** The value was 22.6%.

**Q.** And the “clearance rate less in females than in males” value ([2]; population analysis)?
**A.** The value was 23%.

**Q.** What about the “increase in clearance, smokers over non-smokers” value ([2]; population-based pharmacokinetic analysis of phase III data) of the same compound?
**A.** The value was 38%.

**Q.** And the “median t½” value ([2]; repeated doses of 7 mg)?
**A.** Its value is “approximately 18 days”.

**Q.** What about the “median t½” value ([2]; repeated doses of 14 mg) of the same compound?
**A.** Its value is roughly 19 days.

**Q.** And the “estimated AUC accumulation ratio” value ([2]; repeated doses of 7 or 14 mg)?
**A.** Its value is “approximately 30”.

**Q.** What about the total body clearance ([2]; single IV administration) of the same compound?
**A.** The total body clearance was 30.5 mL/h.

**Q.** And the “time to reach plasma concentrations less than 0.02 mg/L, longest (individual variations in drug clearance)” value [2, 8]?
**A.** The value was no more than 2 years.

**Q.** What about the “time to reach plasma concentrations less than 0.02 mg/L, on average” value [2, 8] of the same compound?
**A.** Its value is 8 months.

**Q.** What about the “additional dose eliminated (mostly in feces)” value ([3]; after accelerated elimination procedure with cholestyramine) of the same compound?
**A.** The value was 23.1%.

**Q.** What about the “decrease in teriflunomide plasma concentration” value ([3]; end of 11 days of cholestyramine or activated charcoal) of the same compound?
**A.** The value was “more than 98%”.

**Q.** What about the “free fraction of teriflunomide” value ([4]; patients with chronic renal insufficiency on CAPD or hemodialysis) of the same compound?
**A.** Its value is “almost doubled”.

**Q.** What about the “impact of CAPD or hemodialysis on circulating levels of teriflunomide” value ([4]; single dose, patients (n=6) with chronic renal insufficiency) of the same compound?
**A.** Its value is “neither had a significant impact”.

**Q.** And the QT interval prolongation [5]?
**A.** Its QT interval prolongation is “no evidence that teriflunomide caused QT interval prolongation of clinical significance”.

**Q.** And the “upper bound of the 90% confidence interval for the largest placebo-adjusted, baseline-corrected QTc” value [5]?
**A.** Its value is “below 10 ms”.

**Q.** What about the “increase in mean repaglinide AUC” value (CYP2C8) of the same compound?
**A.** The value was 2.4 fold.

**Q.** What about the “increase in mean repaglinide Cmax” value (CYP2C8) of the same compound?
**A.** Its value is 1.7 fold.

**Q.** What about the “decrease in mean AUC of caffeine” value (CYP1A2) of the same compound?
**A.** The value was 55%.

**Q.** What about the “decrease in mean Cmax of caffeine” value (CYP1A2) of the same compound?
**A.** The value was 18%.

**Q.** What about the “increase in mean cefaclor AUC” value [6] of the same compound?
**A.** The value was 1.54 fold.

**Q.** And the “increase in mean cefaclor Cmax” value [6]?
**A.** Its value is 1.43 fold.

**Q.** And the “increase in mean ethinylestradiol AUC 0-24” value [7]?
**A.** The value was 1.54 fold.

**Q.** What about the “increase in mean ethinylestradiol Cmax” value [7] of the same compound?
**A.** Its value is 1.58 fold.

**Q.** And the “increase in mean levonorgestrel AUC 0-24” value [7]?
**A.** Its value is 1.41 fold.

**Q.** And the “increase in mean levonorgestrel Cmax” value [7]?
**A.** Its value is 1.33 fold.

**Q.** What about the “effect on pharmacokinetics of bupropion (a CYP2B6 substrate)” value (CYP2B6) of the same compound?
**A.** The value was “does not affect the pharmacokinetics”.

**Q.** And the “effect on pharmacokinetics of omeprazole (a CYP2C19 substrate)” value (CYP2C19)?
**A.** Its value is “does not affect the pharmacokinetics”.

**Q.** And the “effect on pharmacokinetics of metoprolol (a CYP2D6 substrate)” value (CYP2D6)?
**A.** The value was “does not affect the pharmacokinetics”.
